Source: publication PMC6733655 (Biochemical pharmacology, 2019)
Values joined by “and” are separate entries in the source; they are usually repeats but may differ in a detail not shown here. Equal entries are not always repeated. “Also recorded” adds a separate entry of the source. Where two headings read alike, the source gives them in different places. Blank lines part the entries; values can stand above or below the compound they belong to.

What was measured:
[1] = cited from earlier work
[2] = In situ single-pass jejunal perfusion of gemcitabine; type: in vivo, C57BL/6 mice; conditions: for Papp at 90 min, 100 μM: pH 6, effective permeability (Peff)
[3] = tested on: ENT1 and ENT2; type: in vivo, C57BL/6 mice; conditions: 5 μM [14C]-gemcitabine, 90 min perfusion, 2 mM dilazep
[4] = tested on: nucleoside transporters (CNT1, CNT3, ENT1, ENT2); assay: Inhibition; type: in vivo, C57BL/6 mice
[5] = In situ single-pass jejunal perfusion of gemcitabine; type: in vivo, BALB/c mice; conditions: female, BALB/c, mouse, other: in situ single-pass jejunal perfusion, pH 6
[6] = tested on: hCNT3; conditions: read-out: Km for gemcitabine transport; Xenopus laevis oocytes; cited from earlier work
[7] = tested on: hCNT1; conditions: read-out: Km for gemcitabine transport; Xenopus laevis oocytes; cited from earlier work
[8] = mice, cited from earlier work
[9] = tested on: hENT2; conditions: read-out: Km for gemcitabine transport; Xenopus laevis oocytes; cited from earlier work
[10] = tested on: hENT1; conditions: read-out: Km for gemcitabine transport; Xenopus laevis oocytes; cited from earlier work
[11] = 100 μM gemcitabine, female BALB/c mice, corrected for cytosine; cited from earlier work
[12] = 5 μM gemcitabine co-perfused with 2 mM inhibitor, sodium-containing buffer
[13] = from intrinsic clearance Vmax/Km, linear conditions
[14] = jejunal flux, 0.5 μM to 2 mM, fit to two Michaelis-Menten terms

Compound: CC(C)[C@H](N)C(=O)OCCOCn1cnc2c(=O)[nH]c(N)nc21 [valacyclovir]
in situ jejunal permeability (Peff) [1]: 9e-05 cm/s

cytosine in outlet samples ([2]; perfusion of 100 μM gemcitabine, C57BL/6 and BALB/c mice): absent
Compound: Nc1cc[nH]c(=O)n1 [Cytosine, cytosine]

Compound: CC1=C(C(=O)O)N2C(=O)[C@@H](NC(=O)[C@H](N)c3ccc(O)cc3)[C@H]2SC1 [cefadroxil]
in situ jejunal permeability (Peff) [1]: 0.6-0.8 × 10^−4 cm/s

Compound: COc1cc(C(=O)OCCCN2CCCN(CCCOC(=O)c3cc(OC)c(OC)c(OC)c3)CC2)cc(OC)c1OC [dilazep]
effect on total gemcitabine radioactivity in intestinal (jejunal) tissue [3]: not altered; also recorded: no change
total gemcitabine radioactivity in portal venous plasma, % control [3]: 32.5%
reduction of jejunal permeability of gemcitabine [4, 12]: about 50%
residual permeability of gemcitabine [4, 12]: 50.2%

Papp at 90 min, 100 μM [5]: 109 ± 13 ×10⁻⁶ cm/s
effective permeability (Peff) ([2]; 100 μM gemcitabine, jejunum, C57BL/6 mice, analyzed by UPLC): 110 ×10⁻⁶ cm/s
Papp at 90 min, 100 μM ([2]; both, C57BL/6, mouse, other: in situ single-pass jejunal perfusion, 100 μM [14C]-gemcitabine, jejunum, C57BL/6 mice, analyzed by radioactivity): 105 ×10⁻⁶ cm/s
Papp at 90 min, 100 μM ([2]; both, C57BL/6, mouse, other: in situ single-pass jejunal perfusion, 100 μM gemcitabine, jejunum, C57BL/6 mice, analyzed by UPLC): 114 ×10⁻⁶ cm/s
Papp at 90 min, 5 μM ([2]; both, C57BL/6, mouse, other: in situ single-pass jejunal perfusion, pH 6, in situ jejunal permeability, 5 μM gemcitabine, C57BL/6 mice): 150 to 190 ×10⁻⁶ cm/s
predicted contribution of the high-affinity transport system to uptake [2, 13]: 72%
predicted contribution of the low-affinity transport system to uptake [2, 13]: 28%
Km ([2]; read-out: Km,1 (high-affinity, low-capacity transport system), jejunal flux, 0.5 μM to 2 mM, fit to two Michaelis-Menten terms): 27.4 ± 13.9 µM
Km ([2]; read-out: Km,2 (low-affinity, high-capacity transport system), jejunal flux, 0.5 μM to 2 mM, fit to two Michaelis-Menten terms): 700 ± 330 µM
jejunal uptake mediated by nucleoside transporters ([4]; C57BL/6 mice): ~ 95%
Compound: Nc1ccn([C@@H]2O[C@H](CO)[C@@H](O)C2(F)F)c(=O)n1 [gemcitabine, 2′,2′-difluoro-2′-deoxycytidine]
Vmax,1 (high-affinity, low-capacity transport system) [2, 14]: 3.6 pmol/cm^2/s and 3.6 ± 2.1 pmol/cm^2/s
Vmax,2 (low-affinity, high-capacity transport system) [2, 14]: 35.9 pmol/cm^2/s and 35.9 ± 5.5 pmol/cm^2/s
residual permeability of gemcitabine ([4]; 5 μM gemcitabine in sodium-free buffer (inhibits CNT1 and CNT3)): 31.7%
Km [6]: ~60 µM
Km [7]: ~25 µM
oral bioavailability ([8]; gemcitabine alone): 10%
oral bioavailability ([8]; with tetrahydrouridine (cytidine deaminase inhibitor)): 40%
Km [9]: ~750 µM
Km [10]: ~160 µM
Peff [11]: 2 ×10⁻⁶ cm/s

Compound: NCC(=O)CCC(=O)O [5-aminolevulinic acid]
in situ jejunal permeability (Peff) [1]: 0.00019 cm/s

Compound: Cc1cn([C@H]2C[C@H](O)[C@@H](CO)O2)c(=O)[nH]c1=O [thymidine]
reduction of jejunal permeability of gemcitabine [4, 12]: about 95%
residual permeability of gemcitabine [4, 12]: 4.6%

Compound: glycylsarcosine
in situ jejunal permeability (Peff) ([1]; mouse): 0.00017 cm/s
